Target: T1, Piezo1 (Mus musculus, UniProt E2JF22)
T1 construct: endogenous full-length channel in mouse juxtaglomerular cell line As4.1 (ATCC CRL2193); homotrimer
Test: Fluo-4 calcium imaging in As4.[…] cells, Hill fit
Type: cell-based
Details: agonist; native As4.1 cells, HBSS with extracellular Ca2+; no added modulator

T1 sequence (E2JF22 whole entry): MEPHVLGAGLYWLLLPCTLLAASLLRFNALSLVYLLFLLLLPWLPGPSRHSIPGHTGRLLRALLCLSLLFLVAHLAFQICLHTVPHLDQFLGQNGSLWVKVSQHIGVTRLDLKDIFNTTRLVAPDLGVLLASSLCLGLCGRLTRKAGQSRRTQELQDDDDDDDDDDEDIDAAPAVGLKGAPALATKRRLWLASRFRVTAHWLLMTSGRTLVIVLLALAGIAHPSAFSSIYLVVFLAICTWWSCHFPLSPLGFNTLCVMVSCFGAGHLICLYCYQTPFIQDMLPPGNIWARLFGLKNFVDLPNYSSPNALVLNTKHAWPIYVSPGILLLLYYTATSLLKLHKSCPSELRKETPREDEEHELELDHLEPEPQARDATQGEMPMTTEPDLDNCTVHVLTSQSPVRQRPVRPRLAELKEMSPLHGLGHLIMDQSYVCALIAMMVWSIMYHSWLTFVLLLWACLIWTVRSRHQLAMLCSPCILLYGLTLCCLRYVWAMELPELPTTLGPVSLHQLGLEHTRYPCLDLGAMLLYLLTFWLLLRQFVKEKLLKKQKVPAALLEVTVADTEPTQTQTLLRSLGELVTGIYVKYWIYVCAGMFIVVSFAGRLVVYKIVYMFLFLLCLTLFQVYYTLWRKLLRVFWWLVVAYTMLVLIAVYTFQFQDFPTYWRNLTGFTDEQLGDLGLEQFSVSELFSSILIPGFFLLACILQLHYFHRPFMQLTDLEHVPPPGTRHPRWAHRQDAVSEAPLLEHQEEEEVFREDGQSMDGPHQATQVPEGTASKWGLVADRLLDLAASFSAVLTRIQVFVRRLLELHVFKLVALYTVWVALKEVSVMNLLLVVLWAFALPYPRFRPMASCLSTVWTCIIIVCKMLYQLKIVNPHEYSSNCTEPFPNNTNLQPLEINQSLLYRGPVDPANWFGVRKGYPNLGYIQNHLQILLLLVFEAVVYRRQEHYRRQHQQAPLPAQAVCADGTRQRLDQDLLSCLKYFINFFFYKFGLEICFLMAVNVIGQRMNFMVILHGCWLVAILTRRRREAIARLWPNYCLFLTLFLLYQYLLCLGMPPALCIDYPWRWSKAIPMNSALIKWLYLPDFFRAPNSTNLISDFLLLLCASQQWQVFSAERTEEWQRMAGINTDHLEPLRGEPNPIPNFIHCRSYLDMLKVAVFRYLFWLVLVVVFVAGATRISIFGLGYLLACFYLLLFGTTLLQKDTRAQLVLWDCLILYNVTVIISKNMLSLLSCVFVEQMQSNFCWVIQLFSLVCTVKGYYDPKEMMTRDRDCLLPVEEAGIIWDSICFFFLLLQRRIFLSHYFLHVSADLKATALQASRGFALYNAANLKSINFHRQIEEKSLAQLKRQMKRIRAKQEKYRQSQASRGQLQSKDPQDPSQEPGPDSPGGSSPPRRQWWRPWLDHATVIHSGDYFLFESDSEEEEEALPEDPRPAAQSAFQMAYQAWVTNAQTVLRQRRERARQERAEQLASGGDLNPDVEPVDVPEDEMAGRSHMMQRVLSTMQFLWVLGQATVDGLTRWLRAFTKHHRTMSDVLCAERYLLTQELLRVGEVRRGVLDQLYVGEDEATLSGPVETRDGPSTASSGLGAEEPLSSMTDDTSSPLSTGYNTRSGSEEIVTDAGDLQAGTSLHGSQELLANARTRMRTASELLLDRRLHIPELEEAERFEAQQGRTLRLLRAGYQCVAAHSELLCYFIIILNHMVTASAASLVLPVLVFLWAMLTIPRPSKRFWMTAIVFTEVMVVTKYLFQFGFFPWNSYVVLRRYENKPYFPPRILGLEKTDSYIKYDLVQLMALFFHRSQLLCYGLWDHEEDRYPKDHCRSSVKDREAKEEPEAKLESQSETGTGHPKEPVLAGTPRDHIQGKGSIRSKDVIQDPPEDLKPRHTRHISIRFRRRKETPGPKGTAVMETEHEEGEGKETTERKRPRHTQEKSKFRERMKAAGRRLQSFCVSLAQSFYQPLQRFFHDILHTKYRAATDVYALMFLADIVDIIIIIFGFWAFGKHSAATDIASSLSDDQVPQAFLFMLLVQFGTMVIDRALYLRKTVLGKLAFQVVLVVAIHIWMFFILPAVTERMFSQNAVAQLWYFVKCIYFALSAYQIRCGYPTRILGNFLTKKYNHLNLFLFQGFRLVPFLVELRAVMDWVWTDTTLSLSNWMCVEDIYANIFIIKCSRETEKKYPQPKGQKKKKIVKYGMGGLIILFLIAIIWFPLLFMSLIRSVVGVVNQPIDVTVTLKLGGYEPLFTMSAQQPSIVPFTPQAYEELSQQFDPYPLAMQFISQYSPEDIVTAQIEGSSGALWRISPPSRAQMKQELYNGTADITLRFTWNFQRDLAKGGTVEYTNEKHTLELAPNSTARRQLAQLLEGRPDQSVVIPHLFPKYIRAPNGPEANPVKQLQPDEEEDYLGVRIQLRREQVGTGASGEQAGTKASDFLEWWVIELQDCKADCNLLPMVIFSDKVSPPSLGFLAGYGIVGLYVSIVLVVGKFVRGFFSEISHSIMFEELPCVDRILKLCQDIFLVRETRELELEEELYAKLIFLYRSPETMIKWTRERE

- EC50: 7.68 µM
SMILES: Clc1cccc(Cl)c1CSc1nnc(-c2cnccn2)s1 [Yoda1]
